In patent publication US20140039044A1, “Hydroxylated Polymethoxyflavone Compositions” (WLLGEN, INC., priority 2006, published 2014):
pIC50: −log10 of the molar value. Read-outs that look alike come from different tables or passages of the source.

What was measured:
Type in all cases: cell-based, human
HL-60 cells = assay: Cell survival assay (antiproliferative IC50); settings: HL-60 cells, read-out: Antiproliferative IC50
AGS cells = assay: Cell cycle distribution by flow cytometry; settings: 24 h
Description: (§1) The human cancer cells (2×10^5) were cultured in 60-mm Petri dishes and incubated for 24 h. After treated with test compounds for 24 h, the cells were then harvested, washed with PBS resuspended in 200 μL of PBS, and fixed in 800 μL of iced 100% ethanol at −20° C. After being left to stand overnight, the cell pellets were collected by centrifugation, resuspended in 1 mL of hypotonic buffer (0.5% Triton X-100 in PBS and 0.5 μg/mL RNase) and incubated at 37° C. for 30 min. Next, 1 mL of propidium iodide solution (50 μg/mL) was added, and the mixture was allowed to stand on ice for 30 min. Fluorescence emitted from the propidium iodide-DNA complex was quantitated after excitation of the fluorescent dye by FACScan cytometry (Becton Dickinson, San Jose, Calif.).
(§2) The effects of the hydrolyzed PMF-enriched compositions, nobiletin and 70% PMF OPE on cell cycle distribution were studied, following the procedures described in Section 8.4. Results for cell cycle distribution in HL-60 cells, COLO205 cells and AGS cells are provided in Table 5, Table 6 and Table 7, respectively. […] In HL-60 cells, G2/M arrest predominated in cells treated with 6N PMF concentrations ≧5 μM and with 1N PMF concentrations ≧25 μM.
(§3) Compounds A-K were evaluated in terms of their effects in arresting cell cycle progression by observing cell cycle phase distribution in cells treated with the compounds. Cells were treated with 5, 10, 25, 50, and 100 μM of one of compound A-K or DMSO (control) for 24 h and subjected to flow cytometric analysis after staining their DNA, as described above.
(§4) Similar cell cycle phase distribution studies were performed in AGS, COLO205, and HT-29 cells in response to individual PMFs, with results reported in Tables 11, 12 and 13, respectively.

COLO205 cells = assay: Cell cycle distribution by flow cytometry; settings: 24 h; for Cell Cycle Distribution G0/G1 / Cell Cycle Distribution G2/M / Cell Cycle Distribution S: COLO205 cells
Description: as §1, §2, §3, §4

Which results are given for `COc1ccc(-c2oc3c(OC)c(OC)c(OC)c(OC)c3c(=O)c2O)cc1OC` [B, 3-hydroxy-5,6,7,8,3′,4-hexamethoxyflavone]?
pIC50 (HL-60 cells): < 4.00; Cell Cycle Distribution G0/G1 (AGS cells; 5 μM, Table 11): 47.1 ± 1.27; Cell Cycle Distribution G2/M (AGS cells; 5 μM, Table 11): 5.6 ± 0.28; Cell Cycle Distribution S (AGS cells; 5 μM, Table 11): 45.8 ± 1.20; Cell Cycle Distribution G0/G1 (AGS cells; 10 μM, Table 11): 46.7 ± 0.92; Cell Cycle Distribution G2/M (AGS cells; 10 μM, Table 11): 10.4 ± 0.07; Cell Cycle Distribution S (AGS cells; 10 μM, Table 11): 44.1 ± 0.57; Cell Cycle Distribution G0/G1 (AGS cells; 25 μM, Table 11): 39.8 ± 0.78; Cell Cycle Distribution G2/M (AGS cells; 25 μM, Table 11): 6.5 ± 0.07; Cell Cycle Distribution S (AGS cells; 25 μM, Table 11): 54.2 ± 0.28; Cell Cycle Distribution G0/G1 (AGS cells; 50 μM, Table 11): 43.1 ± 1.56; Cell Cycle Distribution G2/M (AGS cells; 50 μM, Table 11): 7.4 ± 0.42; Cell Cycle Distribution S (AGS cells; 50 μM, Table 11): 51.2 ± 1.06; Cell Cycle Distribution G0/G1 (AGS cells; 100 μM, Table 11): 46.8 ± 0.28; Cell Cycle Distribution G2/M (AGS cells; 100 μM, Table 11): 9.3 ± 0.42; Cell Cycle Distribution S (AGS cells; 100 μM, Table 11): 44.5 ± 0.14; Cell Cycle Distribution G0/G1 (COLO205 cells; 5 μM, Table 12): 63.59 ± 0.48; Cell Cycle Distribution G2/M (COLO205 cells; 5 μM, Table 12): 0.89 ± 0.94; Cell Cycle Distribution S (COLO205 cells; 5 μM, Table 12): 35.53 ± 0.46; Cell Cycle Distribution G0/G1 (COLO205 cells; 10 μM, Table 12): 63.12 ± 0.20; Cell Cycle Distribution G2/M (COLO205 cells; 10 μM, Table 12): 5.63 ± 0.28; Cell Cycle Distribution S (COLO205 cells; 10 μM, Table 12): 31.25 ± 0.48; Cell Cycle Distribution G0/G1 (COLO205 cells; 25 μM, Table 12): 64.96 ± 0.99; Cell Cycle Distribution G2/M (COLO205 cells; 25 μM, Table 12): 0.41 ± 0.31; Cell Cycle Distribution S (COLO205 cells; 25 μM, Table 12): 34.63 ± 0.68; Cell Cycle Distribution G0/G1 (COLO205 cells; 50 μM, Table 12): 63.32 ± 0.52; Cell Cycle Distribution G2/M (COLO205 cells; 50 μM, Table 12): 0.31 ± 0.11; Cell Cycle Distribution S (COLO205 cells; 50 μM, Table 12): 36.39 ± 0.62; Cell Cycle Distribution G0/G1 (COLO205 cells; 100 μM, Table 12): 78.51 ± 0.63; Cell Cycle Distribution G2/M (COLO205 cells; 100 μM, Table 12): 3.99 ± 0.95; Cell Cycle Distribution S (COLO205 cells; 100 μM, Table 12): 17.51 ± 1.58

What does the source list for `COc1ccc(-c2cc(=O)c3c(OC)c(OC)c(OC)c(OC)c3o2)cc1OC` [Compound A, 5,6,7,8,3′,4′-hexamethoxyflavone, reference compound]?
IC50 (HL-60 cells; Homo sapiens, Table 4): > 100 µg/mL; pIC50 (HL-60 cells; Homo sapiens): < 4.00; Cell Cycle Distribution G0/G1 (AGS cells; 5 μM, Table 7): 58.67 ± 0.61; Cell Cycle Distribution G2/M (AGS cells; 5 μM, Table 7): 13.50 ± 1.34; Cell Cycle Distribution S (AGS cells; 5 μM, Table 7): 27.84 ± 1.94; Cell Cycle Distribution G0/G1 (AGS cells; 5 μM, Table 11): 44.7 ± 0.71; Cell Cycle Distribution G2/M (AGS cells; 5 μM, Table 11): 0.4 ± 0.57; Cell Cycle Distribution S (AGS cells; 5 μM, Table 11): 54.4 ± 0.64; Cell Cycle Distribution G0/G1 (AGS cells; 10 μM, Table 7): 59.74 ± 0.36; Cell Cycle Distribution G2/M (AGS cells; 10 μM, Table 7): 13.57 ± 1.23; Cell Cycle Distribution S (AGS cells; 10 μM, Table 7): 26.70 ± 0.87; Cell Cycle Distribution G0/G1 (AGS cells; 10 μM, Table 11): 47.1 ± 0.28; Cell Cycle Distribution G2/M (AGS cells; 10 μM, Table 11): 5.0 ± 0.64; Cell Cycle Distribution S (AGS cells; 10 μM, Table 11): 49.1 ± 0.64; Cell Cycle Distribution G0/G1 (AGS cells; 25 μM, Table 7): 59.56 ± 1.98; Cell Cycle Distribution G2/M (AGS cells; 25 μM, Table 7): 13.50 ± 0.35; Cell Cycle Distribution S (AGS cells; 25 μM, Table 7): 26.95 ± 2.33; Cell Cycle Distribution G0/G1 (AGS cells; 25 μM, Table 11): 52.9 ± 1.06; Cell Cycle Distribution G2/M (AGS cells; 25 μM, Table 11): 2.8 ± 0.35; Cell Cycle Distribution S (AGS cells; 25 μM, Table 11): 43.7 ± 0.42; Cell Cycle Distribution G0/G1 (AGS cells; 50 μM, Table 7): 56.45 ± 0.03; Cell Cycle Distribution G2/M (AGS cells; 50 μM, Table 7): 15.25 ± .33; Cell Cycle Distribution S (AGS cells; 50 μM, Table 7): 28.31 ± 0.36; Cell Cycle Distribution G0/G1 (AGS cells; 50 μM, Table 11): 53.8 ± 0.64; Cell Cycle Distribution G2/M (AGS cells; 50 μM, Table 11): 6.6 ± 0.69; Cell Cycle Distribution S (AGS cells; 50 μM, Table 11): 41.3 ± 0.92; Cell Cycle Distribution G0/G1 (AGS cells; 100 μM, Table 7): 46.13 ± 4.96; Cell Cycle Distribution G2/M (AGS cells; 100 μM, Table 7): 15.54 ± 1.10; Cell Cycle Distribution S (AGS cells; 100 μM, Table 7): 28.33 ± 3.86; Cell Cycle Distribution G0/G1 (AGS cells; 100 μM, Table 11): 66.9 ± 0.14; Cell Cycle Distribution G2/M (AGS cells; 100 μM, Table 11): 3.2 ± 0.57; Cell Cycle Distribution S (AGS cells; 100 μM, Table 11): 31.0 ± 0.64; Cell Cycle Distribution G0/G1 (COLO205 cells; 5 μM, Table 6): 63.83 ± 0.29; Cell Cycle Distribution G2/M (COLO205 cells; 5 μM, Table 6): 8.25 ± 0.69; Cell Cycle Distribution S (COLO205 cells; 5 μM, Table 6): 27.93 ± 0.98; Cell Cycle Distribution G0/G1 (COLO205 cells; 5 μM, Table 12): 63.63 ± 0.53; Cell Cycle Distribution G2/M (COLO205 cells; 5 μM, Table 12): 1.58 ± 0.04; Cell Cycle Distribution S (COLO205 cells; 5 μM, Table 12): 34.80 ± 0.57; Cell Cycle Distribution G0/G1 (COLO205 cells; 10 μM, Table 6): 71.13 ± 0.65; Cell Cycle Distribution G2/M (COLO205 cells; 10 μM, Table 6): 7.42 ± 0.48; Cell Cycle Distribution S (COLO205 cells; 10 μM, Table 6): 21.45 ± 0.17; Cell Cycle Distribution G0/G1 (COLO205 cells; 10 μM, Table 12): 67.25 ± 0.38; Cell Cycle Distribution G2/M (COLO205 cells; 10 μM, Table 12): 0.25 ± 0.25; Cell Cycle Distribution S (COLO205 cells; 10 μM, Table 12): 32.50 ± 0.13; Cell Cycle Distribution G0/G1 (COLO205 cells; 25 μM, Table 6): 84.21 ± 4.38; Cell Cycle Distribution G2/M (COLO205 cells; 25 μM, Table 6): 4.50 ± 0.35; Cell Cycle Distribution S (COLO205 cells; 25 μM, Table 6): 14.29 ± 0.22; Cell Cycle Distribution G0/G1 (COLO205 cells; 25 μM, Table 12): 69.94 ± 1.02; Cell Cycle Distribution G2/M (COLO205 cells; 25 μM, Table 12): 0.64 ± 0.07; Cell Cycle Distribution S (COLO205 cells; 25 μM, Table 12): 27.42 ± 1.09; Cell Cycle Distribution G0/G1 (COLO205 cells; 50 μM, Table 6): 76.82 ± 1.48; Cell Cycle Distribution G2/M (COLO205 cells; 50 μM, Table 6): 6.30 ± 0.08; Cell Cycle Distribution S (COLO205 cells; 50 μM, Table 6): 16.89 ± 1.39; Cell Cycle Distribution G0/G1 (COLO205 cells; 50 μM, Table 12): 82.40 ± 0.63; Cell Cycle Distribution G2/M (COLO205 cells; 50 μM, Table 12): 0.29 ± 0.08; Cell Cycle Distribution S (COLO205 cells; 50 μM, Table 12): 17.50 ± 0.45; Cell Cycle Distribution G0/G1 (COLO205 cells; 100 μM, Table 6): 77.12 ± 2.00; Cell Cycle Distribution G2/M (COLO205 cells; 100 μM, Table 6): 5.11 ± .46; Cell Cycle Distribution S (COLO205 cells; 100 μM, Table 6): 17.74 ± 2.40; Cell Cycle Distribution G0/G1 (COLO205 cells; 100 μM, Table 12): 65.60 ± 0.65; Cell Cycle Distribution G2/M (COLO205 cells; 100 μM, Table 12): 6.20 ± 1.25; Cell Cycle Distribution S (COLO205 cells; 100 μM, Table 12): 28.21 ± 0.60; Cell cycle arrest, in words (COLO205 cells; COLO 205 cells, compound A 50 μM, compound I 100 μM): trends in G1 arrest
